The numbers were not newly measured in patent US20050261210A1, “Nonsense suppressor agents in treatment of cutaneous and gastrointestinal disorders” (priority 2004, published 2005), which cites them from elsewhere.

Entries after “also recorded” stand apart in the source; their conditions may differ. Where two headings read alike, the source gives them in different places.

Data set [1] deals with dystrophin. The settings on record: cultured muscle cells from mdx mice.
Data set [2] has as its system dystrophin. The settings on record: mdx mice, systemic treatment.
Data set [3] has as its system dystrophin. The settings on record: Duchenne muscular dystrophy patients with nonsense mutations.
Data set [4] deals with CFTR. Conditions: cultured respiratory epithelial cells with CFTR nonsense mutations.
Data set [5] deals with CFTR. The settings on record: transgenic mouse model of nonsense-mutated CFTR.
The test system of data set [6] is CFTR. The settings on record: cystic fibrosis patients with CFTR nonsense mutation, application to nasal mucosa.
Data set [7] has as its system termination suppression (readthrough). The settings on record: for levels of termination suppression: in vitro assay, compared with tobramycin.

Turning to gentamicin, in the data set with dystrophin [1], the dystrophin level entry is listed as “detectable levels of dystrophin”. The dystrophin expression entry in the data set on dystrophin [2] is listed as “expression of the protein throughout the animal”; in the data set on dystrophin [3], “treatment-dependent expression of dystrophin in some patients; also recorded: lack of response in others”. Besides, the muscle injury result in the data set with dystrophin [2] (versus untreated mdx mice) was “protection against the muscle injury”. Besides, the “expression of functional CFTR protein” value in the data set on CFTR [4] and with CFTR [5] was “restore expression of functional CFTR protein” throughout. The “functional CFTR protein” value in the data set with CFTR [6] is given as “restoration of functional CFTR protein”. In addition, the “levels of termination suppression” value in data set [7] is given as “higher than those provided by tobramycin”.
In the case of `NCC[C@H](O)C(=O)N[C@@H]1C[C@H](N)[C@@H](O[C@H]2O[C@H](CN)[C@@H](O)[C@H](O)[C@H]2O)[C@H](O)[C@H]1O[C@H]1O[C@H](CO)[C@@H](O)[C@H](N)[C@H]1O` [amikacin], the level of read-through entry in data set [7] (compared with gentamicin) is “higher level of read-through than gentamicin in some contexts”. In data set [7], the “levels of termination suppression” value was “higher than those provided by tobramycin”.
